From patent publication US11090364B2, “Conjugates of a pharmaceutical agent and a moiety capable of binding to a glucose sensing protein” (SANOFI, priority 2016, dated 2021) come the findings set out here.

Like-named read-outs stand apart in the source and are kept apart here. Where only a bound is given, the exact number is not on record here.

The test system of experiment [1] is A2780 Human Carcinoma Cells. In words: Glucose displacement assay (ATP measurement, CellTiter-Glo). Type of experiment: cell-based. On the procedure:
2. Glucose Displacement Assay (ATP Measurement)
30.000 A2780 Human Carcinoma Cells are seeded per well in a Greiner 96-well plate. Cells are expanded and cultured in RPMI 1640 medium+GlutaMAX® with 10% FCS and 11 mM glucose, at 37° C. with 5% CO2. After 44 h, culture media is changed and washed once with PBS to starvation media consisting of RPMI 1640 medium with 1% FCS without glucose for 2 hours. Cells are then washed with KRB buffer, followed incubation for 20 min at 37° C. of the treatment mix consisting of: 60 μL KRB buffer/well with 10 μL of compound or DMSO 10×. 10 μl of rotenone is added to the mix to a final concentration of 0.5 μM. Cell plates are left for 2 min at room temperature. 20 μL of different glucose concentrations are added to the mix—typically 0.1 to 20 mM range -. Cells are incubated for another 15 min at 37° C., before measuring ATP with the CellTiter-Glo® Assay, under manufacturer's guidance, but without the equilibration step at room temperature for 30 min. In brief, 100 μl of Cell-Titer-Glo® Reagent is added to the wells containing already 100 μl of the previous reaction mix. Plates are mixed for 2 min at 800 rpm, followed by incubation at room temperature for 10 min to stabilize the luminescent signal. Luminescence is then recorded with the Tekan Ultra Evolution reader.

The test system of the next experiment is erythrocytes. In words: Erythrocyte dialysis assay (6-NBD-Glc, Rapid Equilibrium Dialysis). The following applies: for Fluorescence intensity in buffer compartiment, 1:1 Dilution k^off / Fluorescence intensity in buffer compartiment, 1:1 Dilution k^on: 6-NBD-Glc 25 μM; for Fluorescence intensity in buffer compartiment, 6-NBD-Glc [50 μM]: absence of glucose. It counts as binding, rat. From the text:
3. Erythrocyte Dialysis Assay
Here 6-NBD-Glc or alternatively 2-NBD-Glc was used in dialysis based competition experiments.
Freshly isolated heparinized rat blood samples were immideately diluted (1:5) in PBS buffer to generate a stable stock solution. This stock solution was further diluted (1:1 or 1:3) for the following dialysis experiments in Rapid Equilibrium Dialysis (RED) devices (Thermo Scientific Pierce).
The aforementioned stock solution was further diluted (1:1 or 1:3 respectively) and added to the dialysis compartiment of a RED device. In parallel stock solution was diluted (1:1) with buffer containing 6 NBD Glc (25 μM).
Dialyses was started by addition of 6 NBD Glc (25 μM) in PBS Buffer (k^on) or pure PBS buffer (ko^off) respectively into the buffer compartiment. Aliquots (20 μl) were taken after defined time intervals from the buffer compartiment and fluorescence was measured in a UV plate reader (Thermovarioskan, Thermo).
As a control, free diffusion of 6-NBD-Glc (25 μM) in PBS buffer vs pure buffer was measured.
Glucose dependency was determined following the protocol described above, comparing the following solutions: 6 NBD-Glc (100 μM), 6 NBD-Glucose (100 μM)+Glucose 20 mM. Data are shown in the next table
Example 102 was investigated in a competition experiment following the same protocol using a 6-NBD-Glc solution (100 μM) in comparison to 6 NBD-Glucose (100 μM)+Example 102 (50 μM).
For orientation: In equilibrium dialysis only unbound substance equilibrates across the membrane.

One may read the IC50 as the midpoint of a concentration-inhibition curve. For “Methyl-2-O-(3-chloro-3′-methoxy-4-phenoxyphenylcarbonyl)-α-D-glucopyranoside [Example 124]”, the IC50 in experiment [1] (10 mM Gluc, read-out: IC50 @ 10 mM Gluc) is greater than 100 µM; in experiment [1] (read-out: IC50) it was 33.2 µM.
In the case of `COc1cc(C(=O)OC[C@H]2OC(O)[C@H](O)[C@@H](O)[C@@H]2O)cc(Cl)c1Oc1ccccc1` (stereo partly drawn) [Example 138], the IC50 is greater than 100 µM in experiment [1] (Homo sapiens, 10 mM Gluc, read-out: IC50 @ 10 mM Gluc) and 8.37 µM in experiment [1] (Homo sapiens, read-out: IC50).
As to `O=[N+]([O-])c1ccc(NC[C@H]2OC(O)[C@H](O)[C@@H](O)[C@@H]2O)c2nonc12` (stereo partly drawn) [Example 6-NBD-Glc, 6-(N-(7-Nitrobenz-2-oxa-1,3-diazol-4-yl)amino)-6-Deoxyglucose], the “Fluorescence intensity in buffer compartiment, 1:1 Dilution k^off” value in the experiment on erythrocytes (0 min) was 0 AU; in the experiment on erythrocytes (30 min), 3.4 AU; in the experiment on erythrocytes (60 min), 6.5 AU; in the experiment on erythrocytes (90 min), 12 AU; in the experiment with erythrocytes (120 min) it was 16.1 AU. The “Fluorescence intensity in buffer compartiment, 1:1 Dilution k^on” value in the experiment with erythrocytes (0 min) is given as 55 AU; with erythrocytes (30 min), 50.6 AU; in the experiment with erythrocytes (60 min) it was 45.1 AU; in the experiment with erythrocytes (90 min), 33 AU; with erythrocytes (120 min), 34 AU. Further, the “Fluorescence intensity in buffer compartiment, NBD-Glc [50 μM] + Glc [10 mM]” value in the experiment on erythrocytes (0 min) came to 0 AU; in the experiment on erythrocytes (15 min), 7.2 AU; with erythrocytes (30 min), 11.9 AU; in the experiment on erythrocytes (60 min), 17 AU; in the experiment with erythrocytes (90 min), 18.5 AU; with erythrocytes (120 min) it was 20.3 AU. Further, the “Fluorescence intensity in buffer compartiment, NBD-Glc [50 μM] + Glc [10 mM]” value with erythrocytes (180 min) came to 22.5 AU. In addition, the “Fluorescence intensity in buffer compartiment, 6-NBD-Glc [50 μM]” value with erythrocytes (0 min) turned out to be 0 AU; in the experiment on erythrocytes (15 min), 7.5 AU; with erythrocytes (30 min), 10.6 AU; in the experiment with erythrocytes (60 min), 11.1 AU; in the experiment on erythrocytes (90 min), 14.9 AU; with erythrocytes (120 min), 15.8 AU. In addition, in the experiment with erythrocytes (180 min), the “Fluorescence intensity in buffer compartiment, 6-NBD-Glc [50 μM]” value is 16 AU. Moreover, in the experiment with erythrocytes (Glc 10 mM versus absence of glucose), the “Free concentration of 6-NBD-Glc in presence of Glc [10 mM]” value is “increased”.
In the case of “6-Desoxy-6-(3-undecenyloxypheny)-4-piperazin-1-yl-D-galactopyranose [Example 141]”, the IC50 in experiment [1] (read-out: IC50) was 84.8 µM.
